ChEMBL document CHEMBL3351367, “Base-dependent formation of cis and trans olefins and their application in the synthesis of 5-oxo-ETE receptor antagonists” (Bioorg Med Chem Lett, 2014)

Molecular target: Oxoeicosanoid receptor 1 (Homo sapiens, UniProt Q8TDS5)
Experiment: Antagonist activity at 5-oxo-ETE receptor in human neutrophils assessed as inhibition of 5-oxo-ETE-induced Ca2+ mobilization incubated for 2 mins prior to 5-oxo-ETE addition by indo-1 staining-based spectrofluorometry
Assay type: functional

Oxoeicosanoid receptor 1, sequence (Q8TDS5 whole entry): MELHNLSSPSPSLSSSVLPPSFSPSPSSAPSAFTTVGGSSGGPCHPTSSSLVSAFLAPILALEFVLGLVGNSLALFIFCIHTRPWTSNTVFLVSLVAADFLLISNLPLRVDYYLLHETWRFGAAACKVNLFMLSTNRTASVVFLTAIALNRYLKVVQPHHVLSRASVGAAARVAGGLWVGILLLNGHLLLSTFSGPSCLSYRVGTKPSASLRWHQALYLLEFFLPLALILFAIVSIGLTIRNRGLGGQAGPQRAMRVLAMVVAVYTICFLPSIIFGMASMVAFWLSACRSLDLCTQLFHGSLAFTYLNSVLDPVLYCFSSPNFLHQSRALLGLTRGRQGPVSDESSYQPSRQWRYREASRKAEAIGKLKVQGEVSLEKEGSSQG

Structure (SMILES) | IC50
CCCC/C=C\c1cc2ccc(Cl)cc2n1C(=O)CC(C)CC(=O)O (configuration not stated) | 0.46 µM
CCCC/C=C/c1cc2ccc(Cl)cc2n1C(=O)CC(C)CC(=O)O (configuration not stated) | 18.5 µM
